Experiments:
human P2X2/3 receptor = biological target: T1, human P2X2/3 receptor (Homo sapiens, UniProt P56373+Q9UBL9); assay: P2X2/3 FLIPR (Fluorometric Imaging Plate Reader) assay; assay type: cell-based; details: CHO-K1 cells transfected with human P2X2/3; agonist α,β-meATP 5 μM; FLIPR calcium fluorescence; read-out: pKi P2X2/3 (converted)
T1 construct: expressed in transfected cells; host or cells: CHO-K1
T1 sequence (Q9UBL9 1-471): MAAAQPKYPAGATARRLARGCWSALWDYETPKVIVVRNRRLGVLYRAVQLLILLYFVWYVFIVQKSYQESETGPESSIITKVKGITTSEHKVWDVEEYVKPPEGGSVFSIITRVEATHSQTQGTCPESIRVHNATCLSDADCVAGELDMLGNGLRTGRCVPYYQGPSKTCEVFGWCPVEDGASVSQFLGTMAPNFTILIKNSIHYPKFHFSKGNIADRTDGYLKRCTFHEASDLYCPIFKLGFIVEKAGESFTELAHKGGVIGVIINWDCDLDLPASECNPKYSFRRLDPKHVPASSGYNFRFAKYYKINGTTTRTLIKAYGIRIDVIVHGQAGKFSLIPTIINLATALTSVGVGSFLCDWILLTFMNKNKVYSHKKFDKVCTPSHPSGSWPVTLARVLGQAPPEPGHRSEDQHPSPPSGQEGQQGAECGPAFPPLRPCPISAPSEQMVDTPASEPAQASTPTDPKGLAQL
T1 sequence (P56373 1-397): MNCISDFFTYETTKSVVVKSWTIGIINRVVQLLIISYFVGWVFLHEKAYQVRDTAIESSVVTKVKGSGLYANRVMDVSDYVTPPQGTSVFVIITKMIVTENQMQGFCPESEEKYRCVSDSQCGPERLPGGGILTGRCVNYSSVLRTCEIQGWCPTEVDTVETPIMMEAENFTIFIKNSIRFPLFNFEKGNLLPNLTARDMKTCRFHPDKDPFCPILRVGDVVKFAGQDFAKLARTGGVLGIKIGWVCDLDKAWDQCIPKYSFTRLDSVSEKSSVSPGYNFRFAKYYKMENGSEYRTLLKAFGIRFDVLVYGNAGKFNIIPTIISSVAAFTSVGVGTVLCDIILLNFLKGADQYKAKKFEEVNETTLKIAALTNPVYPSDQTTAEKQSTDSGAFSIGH
Method: (§1) CHO-K1 cells were transfected with cloned rat P2X3 or human P2X2/3 receptor subunits and passaged in flasks. 18-24 hours before the FLIPR experiment, cells were released from their flasks, centrifuged, and resuspended in nutrient medium at 2.5×10^5 cells/ml. The cells were aliquoted into black-walled 96-well plates at a density of 50,000 cells/well and incubated overnight in 5% CO2 at 37° C. On the day of the experiment, cells were washed in FLIPR buffer (calcium- and magnesium-free Hank's balanced salt solution, 10 mM HEPES, 2 mM CaCl2, 2.5 mM probenecid; FB). Each well received 100 μl FB and 100 μl of the fluorescent dye Fluo-3 AM [2 μM final conc.]. After a 1 hour dye loading incubation at 37° C., the cells were washed 4 times with FB, and a final 75 μl/well FB was left in each well.
(§2) Test compounds (dissolved in DMSO at 10 mM and serially diluted with FB) or vehicle were added to each well (25 μl of a 4× solution) and allowed to equilibrate for 20 minutes at room temperature. The plates were then placed in the FLIPR and a baseline fluorescence measurement (excitation at 488 nm and emission at 510-570 nm) was obtained for 10 seconds before a 100 μl/well agonist or vehicle addition. The agonist was a 2× solution of α,β-meATP producing a final concentration of 1 μM (P2X3) or 5 μM (P2X2/3). Fluorescence was measured for an additional 2 minutes at 1 second intervals after agonist addition. A final addition of ionomycin (5 μM, final concentration) was made to each well of the FLIPR test plate to establish cell viability and maximum fluorescence of dye-bound cytosolic calcium. Peak fluorescence in response to the addition of α,β-meATP (in the absence and presence of test compounds) was measured and inhibition curves generated using nonlinear regression. PPADS, a standard P2X antagonist, was used as a positive control.

rat P2X3 receptor = biological target: T2, rat P2X3 receptor (Rattus norvegicus, UniProt P49654); assay: P2X3 FLIPR (Fluorometric Imaging Plate Reader) assay; assay type: cell-based; details: CHO-K1 cells transfected with rat P2X3, agonist α,β-meATP 1 μM, FLIPR calcium fluorescence; for Ki: read-out: pKi P2X3 (converted)
T2 construct: expressed in transfected cells; host or cells: CHO-K1
T2 sequence (P49654 1-397): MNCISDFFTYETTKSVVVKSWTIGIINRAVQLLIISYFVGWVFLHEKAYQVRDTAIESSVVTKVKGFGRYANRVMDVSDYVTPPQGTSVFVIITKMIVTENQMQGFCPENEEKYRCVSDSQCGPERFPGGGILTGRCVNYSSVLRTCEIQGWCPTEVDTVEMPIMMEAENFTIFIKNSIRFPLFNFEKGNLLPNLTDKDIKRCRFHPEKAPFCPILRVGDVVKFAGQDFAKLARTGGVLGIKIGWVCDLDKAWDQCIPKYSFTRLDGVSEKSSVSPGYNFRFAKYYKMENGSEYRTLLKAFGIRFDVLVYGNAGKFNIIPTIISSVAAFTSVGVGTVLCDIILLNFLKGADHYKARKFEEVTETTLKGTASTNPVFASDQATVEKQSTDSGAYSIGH
Method: as §1, §2

Row | Structure (SMILES) | Ki (human P2X2/3 receptor) [nM] | Ki (rat P2X3 receptor) [nM] | pKi P2X3 (rat P2X3 receptor)
1 | Cc1ccc(-c2cc(C(=O)NC(C)c3cnccn3)cc(-n3c(=O)oc4ccccc43)c2)nc1 (stereo not shown) [Compound 2, 3-(5-Methyl-pyridin-2-yl)-5-(2-oxo-benzooxazol-3-yl)-N-(1-pyrazin-2-yl-ethyl)-benzamide] | 28.2 | 3.09 | –
2 | COCC(C)NC(=O)c1cc(-c2ccc(C)cc2)cc(N2CCNC2=O)c1 (stereo not shown) [Compound 52, 4′-Methyl-5-(2-oxo-imidazolidin-1-yl)-biphenyl-3-carboxylic acid (2-methoxy-1-methyl-ethyl)-amide] | – | 5250 | –
3 | Cc1ccc(-c2cc(C(=O)N[C@@H](C)CO)cc(N3C(=O)OC[C@H]3C(C)C)c2)c(F)c1 [Compound 46, 2′-Fluoro-5-((R)-4-isopropyl-2-oxo-oxazolidin-3-yl)-4′-methyl-biphenyl-3-carboxylic acid ((S)-2-hydroxy-1-methyl-ethyl)-amide] | 93.3 | 2.45 | –
4 | Cc1ccc(-c2cc(C(=O)N[C@@H](C)CO)cc(N3C(=O)OC[C@H]3C(C)C)c2)cc1 [Compound 38, 5-((R)-4-Isopropyl-2-oxo-oxazolidin-3-yl)-4′-methyl-biphenyl-3-carboxylic acid ((S)-2-hydroxy-1-methyl-ethyl)-amide] | 79.4 | 2.19 | –
5 | COCC(C)NC(=O)c1cc(-c2ccc(C)cc2)cc(N2C(=O)CCC2C)c1 (stereo not shown) [Compound 36, 4′-Methyl-5-(2-methyl-5-oxo-pyrrolidin-1-yl)-biphenyl-3-carboxylic acid (2-methoxy-1-methyl-ethyl)-amide] | – | 575 | –
6 | Cc1ccc(-c2cc(C(=O)NC3CC3)cc(N3C(=O)OC[C@@H]3C(C)C)c2)cc1 [Compound 42, 5-((S)-4-Isopropyl-2-oxo-oxazolidin-3-yl)-4′-methyl-biphenyl-3-carboxylic acid cyclopropylamide] | – | 1480 | –
7 | CCC[C@@H]1COC(=O)N1c1cc(C(=O)NC(C)c2cnccn2)cc(-c2ccc(C)cn2)c1 (stereo partly drawn) [Compound 23, 3-(5-Methyl-pyridin-2-yl)-5-((R)-2-oxo-4-propyl-oxazolidin-3-yl)-N-(1-pyrazin-2-yl-ethyl)-benzamide] | – | 85.1 | –
8 | CCC[C@@H]1COC(=O)N1c1cc(C(=O)N[C@@H](C)CO)cc(-c2ccc(C)cn2)c1 [Compound 22, N-((S)-2-Hydroxy-1-methyl-ethyl)-3-(5-methyl-pyridin-2-yl)-5-((R)-2-oxo-4-propyl-oxazolidin-3-yl)-benzamide] | – | 3800 | –
9 | Cc1ccc(-c2cc(C(=O)N[C@@H](C)CO)cc(N3C(=O)OC[C@@H]3C(C)C)c2)cc1 [Compound 43, 5-((S)-4-Isopropyl-2-oxo-oxazolidin-3-yl)-4′-methyl-biphenyl-3-carboxylic acid ((S)-2-hydroxy-1-methyl-ethyl)-amide] | – | 2570 | –
10 | COCC(C)NC(=O)c1cc(-c2ccc(C)cc2)cc(N2CCNC2=O)c1 (stereo not shown) [Compound 35, 4′-Methyl-5-(2-oxo-imidazolidin-1-yl)-biphenyl-3-carboxylic acid (2-methoxy-1-methyl-ethyl)-amide] | – | – | 5.28
11 | Cc1ccc(-c2cc(C(=O)N[C@@H](C)CO)cc(N3C(=O)CCC3C)c2)nc1 (stereo partly drawn) [Compound 26, N-((S)-2-Hydroxy-1-methyl-ethyl)-3-(2-methyl-5-oxo-pyrrolidin-1-yl)-5-(5-methyl-pyridin-2-yl)-benzamide] | – | 912 | –

More lines, now with the values ahead:

Row | Ki (human P2X2/3 receptor) [nM] | Ki (rat P2X3 receptor) [nM] | pKi P2X3 (rat P2X3 receptor) | Structure (SMILES)
12 | 26.3 | 3.55 | – | Cc1ccc(-c2cc(C(=O)NC(C)c3cnccn3)cc(N3C(=O)OC[C@H]3C(C)C)c2)nc1 (stereo partly drawn) [Compound 10, 3-((R)-4-Isopropyl-2-oxo-oxazolidin-3-yl)-5-(5-methyl-pyridin-2-yl)-N-(1-pyrazin-2-yl-ethyl)-benzamide]
13 | 38 | 12.3 | – | Cc1ccc(-c2cc(C(=O)NCc3cnc(C)cn3)cc(N3C(=O)OC[C@H]3C(C)C)c2)cc1 [Compound 40, 5-((R)-4-Isopropyl-2-oxo-oxazolidin-3-yl)-4′-methyl-biphenyl-3-carboxylic acid (5-methyl-pyrazin-2-ylmethyl)-amide]
14 | 129 | 4.37 | – | Cc1ccc(-c2cc(C(=O)NCc3cnc(C)cn3)cc(N3C(=O)OCC34CC4)c2)nc1 [Compound 29, N-(5-Methyl-pyrazin-2-ylmethyl)-3-(5-methyl-pyridin-2-yl)-5-(5-oxo-6-oxa-4-aza-spiro[2.4]hept-4-yl)-benzamide]
15 | 85.1 | 5.62 | – | Cc1ccc(-c2cc(C(=O)NCc3ccc(C)nn3)cc(N3C(=O)OCC3(C)C)c2)nc1 [Compound 31, 3-(4,4-Dimethyl-2-oxo-oxazolidin-3-yl)-N-(6-methyl-pyridazin-3-ylmethyl)-5-(5-methyl-pyridin-2-yl)-benzamide]
16 | – | 28.2 | – | Cc1ccc(-c2cc(C(=O)N[C@@H](C)CO)cc(N3C(=O)OCC3(C)C)c2)nc1 [Compound 25, 3-(4,4-Dimethyl-2-oxo-oxazolidin-3-yl)-N-((S)-2-hydroxy-1-methyl-ethyl)-5-(5-methyl-pyridin-2-yl)-benzamide]
17 | 35.5 | 3.16 | – | Cc1ccc(-c2cc(C(=O)NCc3cnc(C)cn3)cc(-n3c(=O)[nH]c4cncnc43)c2)nc1 [Compound 30, N-(5-Methyl-pyrazin-2-ylmethyl)-3-(5-methyl-pyridin-2-yl)-5-(8-oxo-7,8-dihydro-purin-9-yl)-benzamide]
18 | 4900 | 10.5 | – | CCC1COC(=O)N1c1cc(C(=O)N[C@@H](C)CO)cc(-c2ccc(C)cn2)c1 (stereo partly drawn) [Compound 17, 3-(4-Ethyl-2-oxo-oxazolidin-3-yl)-N-((S)-2-hydroxy-1-methyl-ethyl)-5-(5-methyl-pyridin-2-yl)-benzamide]
19 | – | 166 | – | CCC[C@@H]1COC(=O)N1c1cc(C(=O)NCc2cnc(C)cn2)cc(-c2ccc(C)cn2)c1 [Compound 24, N-(5-Methyl-pyrazin-2-ylmethyl)-3-(5-methyl-pyridin-2-yl)-5-((R)-2-oxo-4-propyl-oxazolidin-3-yl)-benzamide]
20 | – | 3.55 | – | Cc1ccc(-c2cc(C(=O)NCc3cnc(C)cn3)cc(N3C(=O)OCC3(C)C)c2)nc1 [Compound 21, 3-(4,4-Dimethyl-2-oxo-oxazolidin-3-yl)-N-(5-methyl-pyrazin-2-ylmethyl)-5-(5-methyl-pyridin-2-yl)-benzamide]
21 | – | 1020 | – | Cc1ccc(-c2cc(C(=O)NCc3cnc(C)cn3)cc(N3C(=O)OC[C@@H]3C(C)C)c2)cc1 [Compound 44, 5-((S)-4-Isopropyl-2-oxo-oxazolidin-3-yl)-4′-methyl-biphenyl-3-carboxylic acid (5-methyl-pyrazin-2-ylmethyl)-amide]
22 | – | 1000 | – | Cc1ccc(-c2cc(C(=O)NC(C)c3cnccn3)cc(N3C(=O)OC[C@H]3C)c2)nc1 (stereo partly drawn) [Compound 15, 3-((R)-4-Methyl-2-oxo-oxazolidin-3-yl)-5-(5-methyl-pyridin-2-yl)-N-(1-pyrazin-2-yl-ethyl)-benzamide]
